These results are taken from patent publication US20240368150A1 (Hoffmann-La Roche Inc., priority 2021, published 2024).

Experiment [1] relates to primary human T-cells. In words: Proliferation assay after 5 days (CellTiter-Glo, CD3 stimulation; PBS counter screen). The format is cell-based. Conditions: Homo sapiens, T-cell, 120 h, CD3 stimulation; for Emax: 5 days, normalized to reference compound A1 as stimulator control = 100%, DMSO neutral control, read-out: Emax proliferation (% activation); for pEC50: primary human T-cells, CellTiter-Glo after 5 days, EC50 of fitted sigmoidal curve, read-out: Tcell Proliferation CD3 EC50. The method in brief: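 ATP-based luminescence (CellTiter-Glo 2.0, room temperature) measured proliferation 5 days after compound addition to CD3-stimulated or unstimulated primary human T-cells. Flags marked compounds that lowered viability or activated unstimulated cells.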

Experiment [2] has as its system primary human T-cells.
The target of experiment [3] is hDGKalpha(1-735)-N-His (Homo sapiens (Human), UniProt P23743). Put plainly: DGKalpha ADP Glo assay (in vitro DGK inhibition). Conditions: DLG 125 uM, ATP 25 μM, DGK α 4 nM, 1 hour reaction. The format is biochemical. As to the method: (§1) DGK α and ζ kinase use ATP to phosphorylate the substrate 1,2-dilauroyl-sn-glycerol (DLG, incorporated in the liposomes). ATP is converted to ADP as a result of this enzymatic reaction. After the kinase reaction, an ATP-depletion reagent is added to terminate the kinase reaction and deplete any remaining ATP, leaving only ADP. Second, a detection reagent is added to simultaneously convert ADP to ATP and allow the newly synthesized ATP to be converted to light using a coupled luciferase/luciferin reaction.
hDGKalpha(1-735)-N-His, sequence (P23743 whole entry): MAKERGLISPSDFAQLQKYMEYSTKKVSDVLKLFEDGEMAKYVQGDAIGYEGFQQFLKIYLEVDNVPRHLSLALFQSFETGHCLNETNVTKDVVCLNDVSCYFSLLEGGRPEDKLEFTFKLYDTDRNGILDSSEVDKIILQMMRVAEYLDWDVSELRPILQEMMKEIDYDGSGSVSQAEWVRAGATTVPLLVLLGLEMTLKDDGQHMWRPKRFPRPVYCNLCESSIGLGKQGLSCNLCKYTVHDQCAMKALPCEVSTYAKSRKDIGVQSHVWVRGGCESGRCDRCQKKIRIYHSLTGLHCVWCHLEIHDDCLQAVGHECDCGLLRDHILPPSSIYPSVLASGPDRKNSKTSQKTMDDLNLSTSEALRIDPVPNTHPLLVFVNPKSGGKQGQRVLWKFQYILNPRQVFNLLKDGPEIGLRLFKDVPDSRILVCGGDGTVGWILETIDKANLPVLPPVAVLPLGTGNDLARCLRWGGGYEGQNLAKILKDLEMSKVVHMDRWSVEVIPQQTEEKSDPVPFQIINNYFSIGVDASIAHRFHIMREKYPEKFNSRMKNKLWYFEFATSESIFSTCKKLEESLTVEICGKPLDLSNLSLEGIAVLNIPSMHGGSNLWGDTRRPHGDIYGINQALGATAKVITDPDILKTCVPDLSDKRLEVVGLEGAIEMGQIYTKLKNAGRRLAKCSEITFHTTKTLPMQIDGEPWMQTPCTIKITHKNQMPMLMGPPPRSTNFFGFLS
(§2) Purification of both enzymes was performed as previously described by Takahashi et al., PeerJ, 2018 (Takahashi, D.; Sakane, F. Expression and purification of human diacylglycerol kinase alpha from baculovirus-infected insect cells for structural studies. PeerJ 2018, 6, No. e5449).
(§3) A concentrated liposome solution was prepared in assay buffer without DTT and BSA: 2 mM of DLG in 21 mM of total liposome (2 mM DLG/8 mM PS/11 mM PC). […] The reactions were started by addition of DGK α and ζ kinases at 4 nM and 2 nM final concentrations, respectively. After 1 hour reaction, the amount of ADP formed was detected with the ADP-Glo kinase assay (Promega) according to the manufacturer instructions. Compounds were added in 11-points dose response, starting at […], 1:3 dilutions, with a final DMSO concentration of 2%. The multidrop combi was used as a liquid handler and luminescence was read with 0.5 s by the envision reader (PE).

Experiment [4] addresses hDGKzeta(1-928)-N-His (Homo sapiens (Human), UniProt Q13574). Put plainly: DGKzeta ADP Glo assay (in vitro DGK inhibition). In kind it is biochemical. The settings on record: DLG 125 uM, ATP 50 μM, DGK ζ 2 nM, 1 hour reaction. As to the method:
as §1, §2, §3

The structures appear in SMILES notation. pEC50, pIC50: −log10 of the molar value. Like-named read-outs stand apart in the source and are kept apart here.

hDGKzeta(1-928)-N-His, sequence (Q13574 whole entry): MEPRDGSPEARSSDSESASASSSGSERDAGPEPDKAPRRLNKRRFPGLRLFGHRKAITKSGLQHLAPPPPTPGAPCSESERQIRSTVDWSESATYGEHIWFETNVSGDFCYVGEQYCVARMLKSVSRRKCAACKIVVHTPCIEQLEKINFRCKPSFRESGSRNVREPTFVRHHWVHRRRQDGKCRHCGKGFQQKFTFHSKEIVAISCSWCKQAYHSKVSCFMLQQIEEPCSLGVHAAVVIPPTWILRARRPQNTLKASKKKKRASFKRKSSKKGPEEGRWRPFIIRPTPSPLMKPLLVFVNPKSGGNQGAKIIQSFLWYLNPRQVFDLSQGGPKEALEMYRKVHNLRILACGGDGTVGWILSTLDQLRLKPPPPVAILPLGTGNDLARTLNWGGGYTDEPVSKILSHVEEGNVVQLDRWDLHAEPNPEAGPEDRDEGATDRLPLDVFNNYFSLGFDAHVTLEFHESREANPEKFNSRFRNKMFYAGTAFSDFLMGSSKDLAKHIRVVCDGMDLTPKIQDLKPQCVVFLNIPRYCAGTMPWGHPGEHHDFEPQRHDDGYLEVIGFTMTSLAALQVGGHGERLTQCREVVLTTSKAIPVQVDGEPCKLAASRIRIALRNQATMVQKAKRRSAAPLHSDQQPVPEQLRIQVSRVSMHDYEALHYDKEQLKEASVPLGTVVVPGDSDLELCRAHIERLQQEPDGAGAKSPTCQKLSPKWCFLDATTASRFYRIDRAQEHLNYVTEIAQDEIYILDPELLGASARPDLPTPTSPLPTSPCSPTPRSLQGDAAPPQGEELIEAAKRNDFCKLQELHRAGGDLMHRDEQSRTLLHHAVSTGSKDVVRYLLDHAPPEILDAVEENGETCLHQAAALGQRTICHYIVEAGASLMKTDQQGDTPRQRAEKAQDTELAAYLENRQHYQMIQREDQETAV

For the molecule `Cc1ccc(S(C)(=O)=O)cc1-c1nc(-c2cc3c(cc2F)S(=O)(=O)C[C@H](N)C(=O)N3Cc2ccc(Cl)cc2)no1` [Example 311, (3R)-3-amino-5-[(4-chlorophenyl)methyl]-8-fluoro-7-[5-(2-methyl-5-methylsulfonyl-phenyl)-1,2,4-oxadiazol-3-yl]-1,1-dioxo-2,3-dihydro-1λ^6,5-benzothiazepin-4-one], the Emax in experiment [1] is 67%. The values for the pEC50 in experiment [1] and in experiment [2] were 5.96 and 5.30, respectively. Further, the pIC50 was 4.36 in experiment [3] and 7.16 in experiment [4].

For the molecule `Cc1cc(C)c(-c2nc(-c3cc4c(cc3F)S(=O)(=O)C[C@H](N)C(=O)N4Cc3ccc(Cl)cc3)no2)cn1` [Example 313, (3R)-3-amino-5-[(4-chlorophenyl)methyl]-7-[5-(4,6-dimethyl-3-pyridyl)-1,2,4-oxadiazol-3-yl]-8-fluoro-1,1-dioxo-2,3-dihydro-1λ^6,5-benzothiazepin-4-one], in experiment [1], the Emax came to 191%. The pEC50 was 6.43 in experiment [1] and 5.95 in experiment [2]. Besides, the pIC50 in experiment [3] was 5.78; in experiment [4], 6.89.

On to `Cc1cc(S(C)(=O)=O)ccc1-c1nc(-c2cc3c(cc2F)S(=O)(=O)C[C@H](N)C(=O)N3Cc2ccc(Cl)cc2)no1` [Example 314, (3R)-3-amino-5-[(4-chlorophenyl)methyl]-8-fluoro-7-[5-(2-methyl-4-methylsulfonyl-phenyl)-1,2,4-oxadiazol-3-yl]-1,1-dioxo-2,3-dihydro-1λ^6,5-benzothiazepin-4-one], for which, in experiment [1], the Emax was 78%. Besides, the pEC50 was 6.81 in experiment [1] and 6.63 in experiment [2]. The values for the negative logarithm of the IC50 (pIC50) in experiment [3] and in experiment [4] were 5.21 and 6.82, respectively.

In the case of `COC(=O)N1CCC(c2nc(-c3cc4c(cc3F)S(=O)(=O)C[C@H](N)C(=O)N4Cc3ccc(OC4CCCC4)cc3)no2)C1` (stereo partly drawn) [Example 348, methyl 3-[3-[(3R)-3-amino-5-[[4-(cyclopentoxy)phenyl]methyl]-8-fluoro-1,1,4-trioxo-2,3-dihydro-1λ^6,5-benzothiazepin-7-yl]-1,2,4-oxadiazol-5-yl]pyrrolidine-1-carboxylate], the Emax in experiment [1] worked out at 141%. For the same molecule, the pEC50 was 6.18 in experiment [1] and 5.77 in experiment [2]. Besides, the negative logarithm of the IC50 (pIC50) in experiment [3] was 5.57; in experiment [4] it was 6.43.

In the case of `CC(C)(C)c1nc(-c2cc3c(cc2F)S(=O)(=O)C[C@H](N)C(=O)N3Cc2ccc(OC3CCCC3)cc2)no1` [Example 350, (3R)-3-amino-7-(5-tert-butyl-1,2,4-oxadiazol-3-yl)-5-[[4-(cyclopentoxy)phenyl]methyl]-8-fluoro-1,1-dioxo-2,3-dihydro-1λ^6,5-benzothiazepin-4-one], in experiment [1], the Emax was 256%. For the same molecule, the pEC50 in experiment [1] is 6.68; in experiment [2], 6.51. In addition, the pIC50 was 5.79 in experiment [3] and 6.63 in experiment [4].

With `CC(C)(C)c1nc(-c2cc3c(cc2F)S(=O)(=O)C[C@H](N)C(=O)N3Cc2ccc(F)cc2)no1` [Example 357, (3R)-3-amino-7-(5-tert-butyl-1,2,4-oxadiazol-3-yl)-8-fluoro-5-[(4-fluorophenyl)methyl]-1,1-dioxo-2,3-dihydro-1λ^6,5-benzothiazepin-4-one], the Emax in experiment [1] worked out at 386%. The pEC50 in experiment [1] is 5.94; in experiment [2], 5.52. The values for the negative-log IC50 (pIC50) in experiment [3] and in experiment [4] were 6.39 and 6.94, respectively.

As for `N[C@H]1CS(=O)(=O)c2ccc(-c3nnc(C4CCCC(F)(F)C4)o3)cc2N(Cc2ccc(Cl)cc2)C1=O` (stereo partly drawn) [Example 373, (3R)-3-amino-5-[(4-chlorophenyl)methyl]-7-[5-(3,3-difluorocyclohexyl)-1,3,4-oxadiazol-2-yl]-1,1-dioxo-2,3-dihydro-1λ^6,5-benzothiazepin-4-one], the Emax in experiment [1] worked out at 100%. The values for the pEC50 in experiment [1] and in experiment [2] were 6.26 and 5.93, respectively. For the same molecule, the negative-log IC50 (pIC50) in experiment [3] is 5.85; in experiment [4], 6.19.

For `Cc1cc(S(C)(=O)=O)ccc1-c1nnc(-c2ccc3c(c2)N(Cc2ccc(Cl)cc2)C(=O)[C@@H](N)CS3(=O)=O)o1` [Example 379, (3R)-3-amino-5-[(4-chlorophenyl)methyl]-7-[5-(2-methyl-4-methylsulfonyl-phenyl)-1,3,4-oxadiazol-2-yl]-1,1-dioxo-2,3-dihydro-1λ^6,5-benzothiazepin-4-one], the Emax in experiment [1] is 69%. The pEC50 is 5.31 in experiment [1] and 5.68 in experiment [2]. The negative-log IC50 (pIC50) in experiment [3] is 4.37; in experiment [4] it was 5.88.

Regarding `COCCN1CCCC(F)(c2nnc(-c3ccc4c(c3)N(Cc3ccc(Cl)cc3)C(=O)[C@@H](N)CS4(=O)=O)o2)C1` (stereo partly drawn) [Example 386, (3R)-3-amino-5-[(4-chlorophenyl)methyl]-7-[5-[3-fluoro-1-(2-methoxyethyl)-3-piperidyl]-1,3,4-oxadiazol-2-yl]-1,1-dioxo-2,3-dihydro-1λ^6,5-benzothiazepin-4-one], in experiment [1], the Emax came to 108%. The pEC50 was 5.64 in experiment [1] and 5.31 in experiment [2]. For the same molecule, the negative-log IC50 (pIC50) in experiment [3] was 5.45; in experiment [4], 6.11.

Consider `Cc1ccc(-c2nnc(-c3ccc4c(c3)N(Cc3ccc(Cl)cc3)C(=O)[C@@H](N)CS4(=O)=O)o2)cn1` [Example 390, (3R)-3-amino-5-[(4-chlorophenyl)methyl]-7-[5-(6-methyl-3-pyridyl)-1,3,4-oxadiazol-2-yl]-1,1-dioxo-2,3-dihydro-1λ^6,5-benzothiazepin-4-one], for which the Emax in experiment [1] worked out at 69%. For the same molecule, the values for the pEC50 in experiment [1] and in experiment [2] were 5.35 and under 5.00, respectively. Also, the results for the negative logarithm of the IC50 (pIC50) in experiment [3] and in experiment [4] were 4.41 and 5.58, respectively.

Regarding `N[C@H]1CS(=O)(=O)c2ccc(-c3nnc(N4[C@@H]5CC[C@H]4COC5)o3)cc2N(Cc2ccc(Cl)cc2)C1=O` [Example 407, (3R)-3-amino-5-[(4-chlorophenyl)methyl]-7-[5-[(1R,5S)-3-oxa-8-azabicyclo[3.2.1]octan-8-yl]-1,3,4-oxadiazol-2-yl]-1,1-dioxo-2,3-dihydro-1λ^6,5-benzothiazepin-4-one], in experiment [1], the Emax was found to be 96%. For the same molecule, the pEC50 in experiment [1] is 5.55; in experiment [2], under 5.00. In addition, the pIC50 in experiment [3] is 5.85; in experiment [4] it was 5.57.

As for `CC(C)(C)c1nnc(-c2ccc3c(c2)N(Cc2ccc(Oc4ccccc4)cc2)C(=O)[C@@H](N)CS3(=O)=O)o1` [Example 438, (3R)-3-amino-7-(5-tert-butyl-1,3,4-oxadiazol-2-yl)-1,1-dioxo-5-[(4-phenoxyphenyl)methyl]-2,3-dihydro-1λ^6,5-benzothiazepin-4-one], the Emax in experiment [1] was found to be 78%. The pEC50 in experiment [1] is 6.61; in experiment [2], 6.15. Moreover, the negative-log IC50 (pIC50) in experiment [3] was 6.10; in experiment [4], 5.87.

With `CC(C)(C)c1nnc(-c2ccc3c(c2)N(Cc2ccc(OC(F)(F)C(F)F)cc2)C(=O)[C@@H](N)CS3(=O)=O)o1` [Example 442, (3R)-3-amino-7-(5-tert-butyl-1,3,4-oxadiazol-2-yl)-1,1-dioxo-5-[[4-(1,1,2,2-tetrafluoroethoxy)phenyl]methyl]-2,3-dihydro-1λ^6,5-benzothiazepin-4-one], the Emax in experiment [1] came out at 134%. In addition, the pEC50 is 6.62 in experiment [1] and 6.83 in experiment [2]. Also, the pIC50 in experiment [3] was 5.86; in experiment [4], 6.55.
